Measured values from patent publication US20240043390A1, “COMPOSITIONS AND METHODS FOR TREATING CANCER” (The Regents of the University of California, priority 2017, published 2024).
Where two headings read alike, the source gives them in different places. Values belong to the compound of their own block, whether it stands above or below them.

How the values were obtained:
HK301 cells = assay: Annexin V apoptosis assay; format: cell-based, human; conditions: HK301 gliomaspheres, 72 hours, nutlin 2.5 μM
Description: (§1) Cells were collected and analyzed for Annexin V and PI staining according to manufacturer's protocol (BD Biosciences). Briefly, cells were plated at 5×10^4 cells/ml and treated with appropriate drugs. Following indicated time points, cells were collected, trypsinized, washed with PBS, and stained with Annexin V and PI for 15 minutes. Samples were then analyzed using the BD LSRII flow cytometer.
(§2) Annexin V staining was measured following 72 hrs of treatment. Using the Chalice software, the response of the combination was compared to its single agents. The combinatorial effects were calculated using the synergy score.

[1] = system: patient-derived GBM gliomaspheres; assay: Annexin V apoptosis assay; format: cell-based, human; conditions: for lethality in combination with nutlin: EGFRi non-responder cells (HK393, HK254)
Description: as §1, §2

Kpuu = format: in vivo; conditions: average; for Kp uu: brain/blood
From the text: (§3) Fu refers to “fraction unbound”.

[2] = Protein binding (fraction unbound) in blood and brain; format: in vitro ADME
From the text: as §3

[3] = system: GBM39 intracranial xenografts; assay: 18F-FDG PET/CT imaging of intracranial xenografts; format: in vivo, NSG mice; conditions: erlotinib 75 mg/kg, 15 hours post administration
Description: (§4) Drugs were administered through oral gavage.
(§5) Following 1 hr unconscious uptake, mice were taken off anesthesia but kept warm for another 5 hr of uptake. 6 hr after the initial administration of ^18F-FDG, mice were imaged using G8 PET/CT scanner (Sofie Biosciences). Per above, quantification was performed by drawing 3D regions of interest (ROI) using the AMIDE software.

[4] = system: HK393 intracranial xenografts; assay: 18F-FDG PET/CT imaging of intracranial xenografts; format: in vivo, NSG mice; conditions: acute EGFRi (erlotinib 75 mg/kg)
Description: as §4, §5

gliomas = conditions: cited from earlier work
HK301 = assay: GI50 assay, Cell Titer Glo, 3 days; format: cell-based, human; conditions: HK301, FIG. 2
Description: The GI50 Assays were performed using patient-derived glioblastoma cells. […] Cells were incubated for 3 days and then proliferation was assessed by Cell Titer Glo (Promega #G7570).

GBM39 = assay: GI50 assay, Cell Titer Glo, 3 days; format: cell-based, human; conditions: GBM39, FIG. 2
[5] = Pharmacokinetic studies, plasma and brain; format: in vivo, male CD-1 mice; conditions: oral; JGK005 10 mg/kg, erlotinib 25 mg/kg; FIG. 1
Description: Pharmacokinetic studies were performed on male CD-1 mice aged 8-10 weeks. Mice were dosed as indicated in duplicates. At the time points, whole blood was obtained by retro-orbital bleeding and brain tissue was harvested. Blood samples were centrifuged to obtain plasma and brain tissue was washed and homogenized. Samples were extracted with acetonitrile and supernatant was dried using a speed-vac. Dried samples were solubilized in 50:50:0.1 acetonitrile:water:formic acid and quantified on an Agilent 6400 series Triple Quadrupole LC/MS.

HK393 and HK254 cells = assay: 18F-FDG uptake assay in cells; format: cell-based, human; conditions: 4 hours, pictilisib 1 μM
Description: Cells were plated at 5×10^4 cells/ml and treated with designated drugs for indicated time points. Following appropriate treatment, cells were collected and resuspended in glucose-free DMEM/F12 (USBiological) containing ^18F-FDG (radioactivity 1 μCi/mL). Cells were incubated at 37° C. for 1 hr and then washed three times with ice cold PBS. Radioactivity of each sample was then measured using a gamma counter.

SMILES: O=CC[C@@H](O)[C@H](O)[C@H](O)CO [2DG, 2-deoxyglucose]
synergy with nutlin (HK301 cells): synergy with nutlin
lethality in combination with nutlin [1]: synergistic lethality

Kpuu (Avg) (Kpuu): 1.30
Bound (blood) [2]: 94.07%
Bound (brain) [2]: 97.23%
fraction unbound [2]: 0.0277
fraction unbound ([2]; blood): 0.0593
SMILES: COc1cc2ncnc(Nc3cccc(Cl)c3F)c2cc1OC(=O)N1CCN(C)C[C@H]1C [AZD3759]

Kp uu (Kpuu): 0.0513
SMILES: C#Cc1cccc(Nc2ncnc3cc(OCCOC)c(OCCOC)cc23)c1 [Erlotinib]
18F-FDG uptake (PET) [3]: rapidly reduced ^18F-FDG uptake
18F-FDG uptake (PET) [4]: no changes in ^18F-FDG uptake
response rates (gliomas): ≤ 25%
apoptosis (annexin V staining) ([1]; non-responders, 72 hours of erlotinib exposure, 1 μM): −3%

SMILES: C#Cc1cccc(Nc2ncnc3cc4c(cc23)OCCO4)c1 [JGK005]
activity against EGFR mutant glioblastoma (HK301): lower activity than erlotinib
activity against EGFR mutant glioblastoma (GBM39): lower activity than erlotinib
CNS penetration [5]: good CNS penetration compared to erlotinib

Kp uu (Kpuu): 1.15
Bound (blood) ([2]; blood (first line of each compound)): 99.48%
fraction unbound ([2]; blood (first line of each compound), read-out: Fu (blood)): 0.0052
Bound (brain) ([2]; brain (second line of each compound)): 99.44%
fraction unbound ([2]; brain (second line of each compound), read-out: Fu (brain)): 0.0056
SMILES: Fc1c(Cl)cccc1Nc1ncnc2cc3c(cc12)OCCO3 [JGK010]

Kpuu (Avg) (Kpuu): 1.2994
SMILES: Fc1c(Br)cccc1Nc1ncnc2cc3c(cc12)OCCO3 [JGK037, N-(3-Bromo-2-fluorophenyl)-7,8-dihydro[1,4]dioxino[2,3-g]quinazolin-4-amine]

SMILES: CC[C@H]1/C=C/C=C/C[C@@H](C)[C@H](O)[C@@](C)(O)C(=O)[C@@H](C)[C@H](O)[C@@H](C)C(=O)[C@@H](C)[C@H](O)[C@@H](C)/C=C/C(=O)O[C@@H]2[C@H](C)[C@H](CC1)O[C@]1(CC[C@H](C)[C@H](C[C@@H](C)O)O1)[C@H]2C [oligomycin]
synergy with nutlin (HK301 cells): did not synergize with nutlin treatment

SMILES: CS(=O)(=O)N1CCN(Cc2cc3nc(-c4cccc5[nH]ncc45)nc(N4CCOCC4)c3s2)CC1 [pictilisib]
18F-FDG uptake (HK393 and HK254 cells): significantly reduced ^18F-FDG uptake
lethality in combination with nutlin [1]: synergistic lethality

SMILES: C=C(C)[C@H]1Cc2c(ccc3c2O[C@@H]2COc4cc(OC)c(OC)cc4[C@@H]2C3=O)O1 [rotenone]
synergy with nutlin (HK301 cells): did not synergize with nutlin treatment
